This note sets out measurements from patent US12378256B2, “Heterocyclic compound” (Takeda Pharmaceutical Company Limited, priority 2017, dated 2025).

The target of the assay is T1, human M1 receptor (hCHRM1) (Homo sapiens, UniProt P11229).
T1 construct: expressed in transfected cells; host or cells: CHO-K1
T1 sequence (P11229 1-460): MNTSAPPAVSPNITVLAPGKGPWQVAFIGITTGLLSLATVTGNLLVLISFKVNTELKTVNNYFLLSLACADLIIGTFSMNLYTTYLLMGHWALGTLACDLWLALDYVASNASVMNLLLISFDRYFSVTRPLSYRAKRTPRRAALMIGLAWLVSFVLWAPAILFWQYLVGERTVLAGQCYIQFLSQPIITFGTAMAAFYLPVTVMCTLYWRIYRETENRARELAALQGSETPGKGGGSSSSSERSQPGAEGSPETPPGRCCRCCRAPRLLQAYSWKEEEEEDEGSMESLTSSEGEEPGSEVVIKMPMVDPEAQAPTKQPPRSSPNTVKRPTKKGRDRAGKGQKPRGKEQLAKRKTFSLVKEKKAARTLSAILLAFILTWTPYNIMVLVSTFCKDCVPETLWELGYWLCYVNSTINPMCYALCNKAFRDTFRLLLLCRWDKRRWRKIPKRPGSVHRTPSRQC
In words: Measurement of M1 receptor positive allosteric modulator (M1PAM) activity, calcium fluorescence with acetylcholine at EC20. In kind it is cell-based. As to conditions: for activity (%) at 10 μM: 10 μM test compound, 100% = 1 μM acetylcholine, 0% = DMSO; for EC50: CHO-K1 cells expressing hCHRM1, acetylcholine at EC20 (final 0.8-1.0 nM), read-out: IP value (inflection point in the concentration-dependent curve). On the procedure:
Measurement of M1 Receptor Positive Allosteric Modulator (M1PAM) Activity
The activity of a test compound in the presence of acetylcholine at EC20 concentration (final concentration 0.8-1.0 nM), which affords an action corresponding to about 20% of the maximum activity, was measured as PAM activity. The method is as follows. CHO-K1 cells stably expressing a human M1 receptor (hCHRM1) were plated on a 384-well black clear bottom plate (BD Falcon) at 5,000 cells/well, and cultured in an incubator at 37° C., 5% CO2 for 1 day. The medium in the cell plate was removed, and assay buffer A containing calcium indicator (Recording medium (DOJINDO LABORATORIES), 0.1% BSA (Wako Pure Chemical Industries, Ltd.), 2.5 μg/mL Fluo-4 AM (DOJINDO LABORATORIES), 0.08% Pluronic F127 (DOJINDO LABORATORIES), 1.25 mM probenecid (DOJINDO LABORATORIES)) was added at 30 μL/well. The cells were left standing in the incubator at 37° C., 5% CO2 for 30 min, and further left standing at room temperature for 30 min. A test compound prepared by diluting with assay buffer B (HBSS (Invitrogen), 20 mM HEPES (Invitrogen), 0.1% BSA) containing 3.2-4.0 nM acetylcholine was added at 10 μL/well, and the fluorescence was measured by FDSS/μCELL (Hamamatsu Photonics K.K.) for 1 min every for 1 second. With the definition that the amount of change in the fluorescence on addition of acetylcholine (final concentration 1 μM) is 100% and that on addition of DMSO instead of a test compound is 0%, the activity (%) of the test compound was calculated, and the inflection point in the concentration-dependent curve of the test compound was calculated as IP values.

Structures are written as SMILES.

For `Cn1cc(-c2ccc(Cc3cc(C(=O)N[C@H]4CCCC[C@@H]4O)nc4c3OCC4)cc2)nn1` [Example 47, N-((1S,2S)-2-hydroxycyclohexyl)-7-(4-(1-methyl-1H-1,2,3-triazol-4-yl)benzyl)-2,3-dihydrofuro[3,2-b]pyridine-5-carboxamide], the “activity (%) at 10 μM” value is on record as 101% and the EC50 is 1.8 nM.
Take `O=C(N[C@H]1CCOC[C@@H]1O)c1cc(Cc2ccc(C(=O)NC[C@H]3CCCO3)c(F)c2)c2occc2n1` [Example 105, 1,5-anhydro-2,3-dideoxy-3-(((7-(3-fluoro-4-(((2R)-tetrahydrofuran-2-ylmethyl)carbamoyl)benzyl)-furo[3,2-b]pyridin-5-yl)carbonyl)amino)-L-threo-pentitol]: the “activity (%) at 10 μM” value is listed as 105% and the EC50 amounted to 4.3 nM.
Take `Cn1cc(-c2ccc(C(F)c3cc(C(=O)N[C@H]4CCOC[C@@H]4O)nc4ccoc34)cn2)cn1` (single isomer, unassigned) [Example 51, 1,5-anhydro-2,3-dideoxy-3-(((7-(fluoro(6-(1-methyl-1H-pyrazol-4-yl)pyridin-3-yl)methyl)furo[3,2-b]pyridin-5-yl)carbonyl)amino)-L-threo-pentitol]: the “activity (%) at 10 μM” value is 104% and the EC50 was 0.88 nM.
For `O=C(N[C@H]1CCOC[C@@H]1O)c1cc(Cc2ccc(C(=O)NC3CC3)c(F)c2)c2c(n1)CCO2` [Example 82, 1,5-anhydro-3-(((7-(4-(cyclopropylcarbamoyl)-3-fluorobenzyl)-2,3-dihydrofuro[3,2-b]pyridin-5-yl)carbonyl)amino)-2,3-dideoxy-L-threo-pentitol], the “activity (%) at 10 μM” value is recorded as 110% and the EC50 turned out to be 6.4 nM.
As to `Cc1cc2nc(C(=O)N[C@H]3CCOC[C@@H]3O)cc(Cc3ccc(-c4cn(C)nn4)cc3)c2o1` [Example 64, 1,5-anhydro-2,3-dideoxy-3-(((2-methyl-7-(4-(1-methyl-1H-1,2,3-triazol-4-yl)benzyl)furo[3,2-b]pyridin-5-yl)carbonyl)amino)-L-threo-pentitol], the “activity (%) at 10 μM” value was found to be 109% and the EC50 is 2.4 nM.
In the case of `CNC(=O)c1ccc(Cc2cc(C(=O)N[C@H]3CCOC[C@@H]3O)nc3cc(C)oc23)cc1F` [Example 65, 1,5-anhydro-2,3-dideoxy-3-(((7-(3-fluoro-4-(methylcarbamoyl)benzyl)-2-methylfuro[3,2-b]pyridin-5-yl)carbonyl)amino)-L-threo-pentitol], the “activity (%) at 10 μM” value is on record as 106% and the EC50 turned out to be 8.5 nM.
`Cn1cc(-c2ccc(C(F)c3cc(C(=O)N[C@H]4CCCC[C@@H]4O)nc4ccoc34)cn2)cn1` (stereo partly drawn) [Example 70, 7-(fluoro(6-(1-methyl-1H-pyrazol-4-yl)pyridin-3-yl)methyl)-N-((1S,2S)-2-hydroxycyclohexyl)furo[3,2-b]pyridine-5-carboxamide]: the “activity (%) at 10 μM” value was found to be 99% and the EC50 turned out to be 1.2 nM.
In the case of `O=C(NC1CC(F)(F)CCC1O)c1cc(Cc2ccc(-n3cccn3)cc2)c2c(n1)CCO2` (single isomer, unassigned) [Example 27, N-(trans-5,5-difluoro-2-hydroxycyclohexyl)-7-(4-(1H-pyrazol-1-yl)benzyl)-2,3-dihydrofuro[3,2-b]pyridine-5-carboxamide], the “activity (%) at 10 μM” value is given as 100% and the EC50 was 4.5 nM.
On to `CC(C)(C)OCCNC(=O)c1ccc(Cc2cc(C(=O)N[C@H]3CCOC[C@@H]3O)nc3c2OCC3)cc1F` [Example 89, 1,5-anhydro-3-(((7-(4-((2-tert-butoxyethyl)carbamoyl)-3-fluorobenzyl)-2,3-dihydrofuro[3,2-b]pyridin-5-yl)carbonyl)amino)-2,3-dideoxy-L-threo-pentitol], for which the “activity (%) at 10 μM” value is listed as 110% and the EC50 turned out to be 25 nM.
Take `Cc1ncc(-c2ccc(Cc3cc(C(=O)N[C@H]4CCCC[C@@H]4O)nc4c3OCC4)cc2)s1` [Example 18, N-((1S,2S)-2-hydroxycyclohexyl)-7-(4-(2-methyl-1,3-thiazol-5-yl)benzyl)-2,3-dihydrofuro[3,2-b]pyridine-5-carboxamide]: the “activity (%) at 10 μM” value came to 97% and the EC50 came out at 12 nM.
The matching figures for `Cn1cc(-c2ccc(Cc3cc(C(=O)N[C@H]4CCOC[C@@H]4O)nc4ccoc34)cc2)cn1` [Example 40, 1,5-anhydro-2,3-dideoxy-3-(((7-(4-(1-methyl-1H-pyrazol-4-yl)benzyl)furo[3,2-b]pyridin-5-yl)carbonyl)amino)-L-threo-pentitol]: 98% and 1.6 nM.
With `Cn1ccc(-c2ccc(Cc3cc(C(=O)N[C@H]4CCOC[C@@H]4O)nc4c3OCC4)cc2)n1` [Example 28, 1,5-anhydro-2,3-dideoxy-3-(((7-(4-(1-methyl-1H-pyrazol-3-yl)benzyl)-2,3-dihydrofuro[3,2-b]pyridin-5-yl)carbonyl)amino)-L-threo-pentitol], the “activity (%) at 10 μM” value is given as 101% and the EC50 came out at 2.3 nM.
For `Cn1ccc(-c2ccc(Cc3cc(C(=O)N[C@H]4COCC[C@@H]4O)nc4c3OCC4)cc2)n1` [Example 8, 1,5-anhydro-2,4-dideoxy-2-(((7-(4-(1-methyl-1H-pyrazol-3-yl)benzyl)-2,3-dihydrofuro[3,2-b]pyridin-5-yl)carbonyl)amino)-L-threo-pentitol], in that order: 100% and 7.9 nM.
For `O=C(O)CNC(=O)c1ccc(Cc2cc(C(=O)N[C@H]3CCOC[C@@H]3O)nc3c2OCC3)cc1F` [Example 96, ((2-fluoro-4-((5-(((3R,4S)-3-hydroxytetrahydro-2H-pyran-4-yl)carbamoyl)-2,3-dihydrofuro[3,2-b]pyridin-7-yl)methyl)benzoyl)amino)acetic acid], in that order: 107% and 11 nM.
For `O=C(N[C@H]1COCC[C@@H]1O)c1cc(Cc2ccc(-n3cccn3)cc2)c2c(n1)CCO2` [Example 3, 1,5-anhydro-2,4-dideoxy-2-(((7-(4-(1H-pyrazol-1-yl)benzyl)-2,3-dihydrofuro[3,2-b]pyridin-5-yl)carbonyl)amino)-L-threo-pentitol], in that order: 100% and 13 nM.
For `Cn1cc(-c2ccc(C(F)c3cc(C(=O)N[C@H]4CCCC[C@@H]4O)nc4ccoc34)cc2)nn1` (single isomer, unassigned) [Example 57], the “activity (%) at 10 μM” value is reported as 99% and the EC50 stood at 1.1 nM.
Consider `Cc1cc(-c2ccc(Cc3cc(C(=O)N[C@H]4CCOC[C@@H]4O)nc4ccoc34)cc2)cnn1` [Example 43, 1,5-anhydro-2,3-dideoxy-3-(((7-(4-(6-methylpyridazin-4-yl)benzyl)furo[3,2-b]pyridin-5-yl)carbonyl)amino)-L-threo-pentitol], for which the “activity (%) at 10 μM” value came to 110% and the EC50 was 2.4 nM.
For `O=C(N[C@H]1CCOC[C@@H]1O)c1cc(Cc2ccc(-n3cccn3)cc2)c2occc2n1` [Example 48, 1,5-anhydro-2,3-dideoxy-3-(((7-(4-(1H-pyrazol-1-yl)benzyl)furo[3,2-b]pyridin-5-yl)carbonyl)amino)-L-threo-pentitol], in that order: 103% and 1.1 nM.
Turning to `Cn1cc(-c2ccc(Cc3cc(C(=O)N[C@H]4CCOC[C@@H]4O)nc4ccoc34)cn2)nn1` [Example 34, 1,5-anhydro-2,3-dideoxy-3-(((7-((6-(1-methyl-1H-1,2,3-triazol-4-yl)pyridin-3-yl)methyl)furo[3,2-b]pyridin-5-yl)carbonyl)amino)-L-threo-pentitol], the “activity (%) at 10 μM” value is reported as 100% and the EC50 stood at 2.4 nM.
In the case of `Cn1cc(-c2ccc(Cc3cc(C(=O)N[C@H]4CCCC[C@@H]4O)nc4ccoc34)cc2)nn1` [Example 23, N-((1S,2S)-2-hydroxycyclohexyl)-7-(4-(1-methyl-1H-1,2,3-triazol-4-yl)benzyl)furo[3,2-b]pyridine-5-carboxamide], the “activity (%) at 10 μM” value worked out at 99% and the EC50 amounted to 1.5 nM.
